Structures can show the parent of a compound that is named as a salt. Where two headings read alike, the source gives them in different places.
What was measured:
[1] = test system: FCR3 strain, a drug sensitive strain of Plasmodium falciparum; assay: In vitro antimalarial assay (p-LDH, Malstat), FCR3 strain; assay type: cell-based; conditions: read-out: Antimalarial activity (IC50 value), Strain FCR3
Source text: (§1) For the evaluation of the antimalarial activity of the compound of the present invention, K1 strain, a drug resistant strain of Plasmodium falciparum, and FCR3 strain, a drug sensitive strain thereof, which were generous gift from Professor Kiyoshi Kita of the Graduate School of Medicine and Faculty of Medicine, the University of Tokyo, were used to measure the in vitro antimalarial activity of the compound against those Plasmodium species according to the method established by Otoguro et al. (Otoguro, K., Kohana, A., Manabe, C., Ishiyama, A., Ui, H., Shiomi, K., Yamada, H. & Omura, S.: Potent antimalarial activity of polyether antibiotic, X-206. J. Antibiot., 54: 658-663, (2001)).
(§2) The parasites were grown based on a slightly modified method from the original method reported by Trager and Jensen (Trager, W. and Jensen, J.: Human malaria parasites in continuous culture, Science, 193: 673-677, (1976)), and those which were maintained and sub-cultured by the method were used. More specifically, in a culture dish, erythrocytes infected with the protozoa, which had been sub-cultured using a RPMI 1640 medium to which 10% human plasma had been added and fresh human erythrocytes, were diluted (hematocrit value: 2 to 5%, parasitaemia: 0.25 to 1%), and were cultured at 37° C. in a mixed gas of 3% O2-4% CO2-93% N2, and continuously cultured while changing the medium and adding fresh erythrocytes at 2- or 3-day intervals.
(§3) A drug susceptibility test was performed by modifying the method established by Desjardins et al. (Desjardins, R. E., Canfield, C. J., Haynes, D. E. and Chulay, J. D.: Quantitative assessment of antimalarial activity in vitro by a semiautomated microdilution technique. Antimicrob. Agents Chemother., 16: 710-718 (1979)). More specifically, 190 μL of a suspension of protozoa which had been precultured (hematocrit value: 2%, parasitaemia: 0.5 or 1%) and 10 μL of a solution of a test compound (5% DMSO solution) serially diluted so that the final concentration was 12.5 to 0.0001 μM were put in each well of a 96-well plate, and after mixing, the same was cultured for 72 hours in the above mixed gas.
(§4) For the measurement of the growth of protozoa, the method established by Makler (Makler, M. T., Rise, J. M., Williams, J. A., Bancroft, J. E., Piper, R. C., Gibbins, B. L. and Hinrichs, D. J.: Parasite lactate dehydrogenase as an Assay for Plasmodium falciparum drug sensitivity, Am. J. Med. Hyg., 48: 739-741 (1993)) was modified to colorimetrically determine parasite lactate dehydrogenase (p-LDH) using Malstat reagent (Flow Inc., USA).
(§5) More specifically, 72 hours after the culture, the 96-well plate was directly frozen at −20° C. for 18 hours and melted at 37° C. to hemolyze the protozoan-infected erythrocytes and destroy the protozoa to prepare a crude enzyme solution. 100 μL of Malstat reagent and 20 μL of the crude enzyme solution were added to and mixed in each well of another 96-well plate, and after reacting for 15 minutes at room temperature, 20 μL of a nitroblue tetrazolium 2 mg/mL phenazine ethosulfate 0.1 mg/mL=1:1 solution was added to the respective wells, and reaction was performed in dark conditions at room temperature for 2 hours.
(§6) The absorbance of the blue formazan product formed by the reaction was measured at a measurement wavelength of 655 nm by using a microplate reader (Labsystems, Finland) to colorimetrically determine the growth of the protozoa. The 50% growth inhibitory concentration for the protozoa of the compound (IC50 value) was determined based on the concentration-response curve of the compound.

[2] = test system: K1 strain, a drug resistant strain of Plasmodium falciparum; assay: In vitro antimalarial assay (p-LDH, Malstat), K1 strain; assay type: cell-based; conditions: read-out: Antimalarial activity (IC50 value), Strain K1
Source text: as §1, §2, §3, §4, §5, §6

[3] = P. falciparum FCR3 (drug sensitive), 72 h culture, p-LDH readout
[4] = P. falciparum K1 (drug resistant), 72 h culture, p-LDH readout

SMILES	IC50 [1, 3] [nM]	IC50 [2, 4] [nM]	IC50 ([1]; FCR3, 72 h) [nM]	IC50 ([2]; K1, 72 h) [nM]
CC(C)c1cccc(Nc2nc(Nc3ccn4ccnc4c3)cc(N3CCOCC3)n2)n1 [Example 123, N4-(imidazo[1,2-a]pyridin-7-yl)-N2-(6-isopropylpyridin-2-yl)-6-morpholinopyrimidine-2,4-diamine formate]			< 100	100 to 1000
Cc1cc(C)nc(Nc2nc(NCc3ccccc3)cc(Nc3ccn4ccnc4c3)n2)c1 [Example 196, N4-benzyl-N2-(4,6-dimethylpyridin-2-yl)-N6-(imidazo[1,2-a]pyridin-7-yl)pyrimidine-2,4,6-triamine]	< 100	< 100		
COc1cc(Nc2ccn3ccnc3c2)nc(Nc2cc(C)cc(C)n2)n1 [Example 86, N2-(4,6-dimethylpyridin-2-yl)-N4-(imidazo[1,2-a]pyridin-7-yl)-6-methoxypyrimidine-2,4-diamine]	100 to 1000	100 to 1000		
CCCCc1cc(C)cc(Nc2nc(Nc3ccn4ccnc4c3)cc(N3CCCCC3)n2)n1 [Example 187, N2-(6-butyl-4-methylpyridin-2-yl)-N4-(imidazo[1,2-a]pyridin-7-yl)-6-(piperidin-1-yl) pyrimidine-2,4-diamine]	100 to 1000	100 to 1000		
Cc1cc(C)nc(Nc2nc(Nc3ccn4ccnc4c3)cc(NN3CCCCC3)n2)c1 [Example 198, N2-(4,6-dimethylpyridin-2-yl)-N4-(imidazo[1,2-a]pyridin-7-yl)-N6-(piperidin-1-yl)pyrimidine-2,4,6-triamine]	< 100	100 to 1000		
CCc1ccnc(Nc2nc(Nc3ccn4ccnc4c3)cc(N3CCC3)n2)c1 [Example 118, 6-(azetidin-1-yl)-N2-(4-ethylpyridin-2-yl)-N4-(imidazo[1,2-a]pyridin-7-yl)pyrimidine-2,4-diamine]	< 100	< 100		
CCCCc1cccc(Nc2nc(Nc3ccn4ccnc4c3)cc(N3CCC3)n2)n1 [Example 167, 6-(azetidin-1-yl)-N2-(6-butylpyridin-2-yl)-N4-(imidazo[1,2-a]pyridin-7-yl)pyrimidine-2,4-diamine]	< 100	100 to 1000		
Cc1cccc(Nc2nc(Nc3ccn4ccnc4c3)cc(N3CCN(C)CC3)n2)n1 [Example 39, N4-(imidazo[1,2-a]pyridin-7-yl)-6-(4-methylpiperazin-1-yl)-N2-(6-methylpyridin-2-yl)pyrimidine-2,4-diamine]	1000 to 10000	1000 to 10000		
Cc1cc(C)nc(Nc2nc(Nc3ccn4ccnc4c3)cc(N3CCCC(C)C3)n2)c1 (centres unmarked) [Example 184, N2-(4,6-dimethylpyridin-2-yl)-N4-(imidazo[1,2-a]pyridin-7-yl)-6-(3-methylpiperidin-1-yl) pyrimidine-2,4-diamine]	100 to 1000	100 to 1000		
Fc1ccc(Nc2nc(Nc3ccn4ccnc4c3)cc(N3CCOCC3)n2)nc1 [Example 13, N2-(5-Fluoropyridin-2-yl)-N4-(imidazo[1,2-a]pyridin-7-yl)-6-morpholinopyrimidine-2,4-diamine]	< 100	100 to 1000		
Cc1cc(C)nc(Nc2nc(Nc3ccn4ccnc4c3)cc(N3CCOCC3)n2)c1 [Example 2, N2-(4,6-dimethylpyridin-2-yl)-N4-(imidazo[1,2-a]pyridin-7-yl)-6-morpholinopyrimidine-2,4-diamine]	< 100	< 100		
CCc1ccnc(Nc2nc(Nc3ccn4ccnc4c3)cc(N3CCC(N4CCCCC4)CC3)n2)c1 [Example 113, 6-([1,4′-bipiperidin]-1′-yl)-N2-(4-ethylpyridin-2-yl)-N4-(imidazo[1,2-a]pyridin-7-yl)pyrimidine-2,4-diamine]	< 100	< 100		
Fc1ccc(Nc2nc(Nc3ccn4ccnc4c3)cc(N3CCOCC3)n2)cn1 [Example 12, N2-(6-Fluoropyridin-3-yl)-N4-(imidazo[1,2-a]pyridin-7-yl)-6-morpholinopyrimidine-2,4-diamine]	100 to 1000	100 to 1000		
Cc1cc(C)nc(Nc2nc(Nc3ccn4ccnc4c3)cc(N3CCC(N4CCOCC4)C3)n2)c1 (centres unmarked) [Example 149, N2-(4,6-dimethylpyridin-2-yl)-N4-(imidazo[1,2-a]pyridin-7-yl)-6-(3-morpholinopyrrolidin-1-yl)pyrimidine-2,4-diamine]	< 100	< 100		

More lines, main results first:

IC50 [1, 3] [nM]	IC50 [2, 4] [nM]	SMILES	IC50 ([1]; FCR3, 72 h) [nM]	IC50 ([2]; K1, 72 h) [nM]
100 to 1000	1000 to 10000	COc1ccncc1Nc1nc(Nc2ccn3ccnc3c2)cc(N2CCOCC2)n1 [Example 23, N4-(Imidazo[1,2-a]pyridin-7-yl)-N2-(4-methoxypyridin-3-yl)-6-morpholinopyrimidine-2,4-diamine]		
100 to 1000	100 to 1000	c1cc(Nc2nc(Nc3ccn4ccnc4c3)cc(N3CCOCC3)n2)ncn1 [Example 22, N4-(Imidazo[1,2-a]pyridin-7-yl)-6-morpholino-N2-(pyrimidin-4-yl)pyrimidine-2,4-diamine]		
< 100	< 100	CCc1ccnc(Nc2nc(Nc3ccn4ccnc4c3)cc(N3CCC(O)CC3)n2)c1 [Example 111, 1-(2-((4-ethylpyridin-2-yl)amino)-6-(imidazo[1,2-a]pyridin-7-ylamino)pyrimidin-4-yl)piperidin-4-ol]		
< 100	100 to 1000	CCOc1cccc(Nc2nc(Nc3ccn4ccnc4c3)cc(N3CCCC3)n2)n1 [Example 150, N2-(6-ethoxypyridin-2-yl)-N4-(imidazo[1,2-a]pyridin-7-yl)-6-(pyrrolidin-1-yl)pyrimidine-2,4-diamine]		
< 100	100 to 1000	Cc1ccc(Nc2nc(Nc3ccn4ccnc4c3)cc(-n3ccnc3)n2)nc1 [Example 43, N4-(imidazo[1,2-a]pyridin-7-yl)-6-(1H-imidazol-1-yl)-N2-(5-methylpyridin-2-yl)pyrimidine-2,4-diamine]		
1000 to 10000	100 to 1000	COc1cccc(Nc2nc(Nc3ccn4ccnc4c3)cc(N3CCCC3)n2)n1 [Example 143, N4-(imidazo[1,2-a]pyridin-7-yl)-N2-(6-methoxypyridin-2-yl)-6-(pyrrolidin-1-yl)pyrimidine-2,4-diamine]		
100 to 1000	100 to 1000	CCc1ccnc(Nc2nc(Nc3ccn4ccnc4c3)cc(N3CCC(C)(C)CC3)n2)c1 [Example 99, 6-(4,4-dimethylpiperidin-1-yl)-N2-(4-ethylpyridin-2-yl)-N4-(imidazo[1,2-a]pyridin-7-yl)pyrimidine-2,4-diamine]		
100 to 1000	1000 to 10000	O=[N+]([O-])c1ccnc(Nc2nc(Nc3ccn4ccnc4c3)cc(N3CCOCC3)n2)c1 [Example 49, N4-(imidazo[1,2-a]pyridin-7-yl)-6-morpholino-N2-(4-nitropyridin-2-yl)pyrimidine-2,4-diamine]		
< 100	100 to 1000	FC(F)Oc1ccc(Nc2nc(Nc3ccn4ccnc4c3)cc(N3CCOCC3)n2)cn1 [Example 78, N2-(6-(difluoromethoxy)pyridin-3-yl)-N4-(imidazo[1,2-a]pyridin-7-yl)-6-morpholinopyrimidine-2,4-diamine]		
100 to 1000	1000 to 10000	CC(C)(C)c1ccnc(Nc2nc(Nc3ccn4ccnc4c3)cc(N3CCCCC3)n2)c1 [Example 72, N2-(4-(tert-butyl)pyridin-2-yl)-N4-(imidazo[1,2-a]pyridin-7-yl)-6-(piperidin-1-yl)pyrimidine-2,4-diamine]		
100 to 1000	100 to 1000	Cc1cc(Nc2nc(Nc3ccn4ccnc4c3)cc(N3CCCCC3)n2)ncc1F [Example 204, N2-(5-fluoro-4-methylpyridin-2-yl)-N4-(imidazo[1,2-a]pyridin-7-yl)-6-(piperidin-1-yl) pyrimidine-2,4-diamine]		
